According to BindingDB's records for doi:10.1124/jpet.301.1.37 (National Institutes of Health, 2002):
Where “and” joins values, the source holds several entries; their conditions need not be identical. Identical values can stand only once.

Experiments:
VIP peptides [1] = biological target: T1, VIP peptides (Homo sapiens, UniProt P01282)
T1 sequence (P01282 whole entry): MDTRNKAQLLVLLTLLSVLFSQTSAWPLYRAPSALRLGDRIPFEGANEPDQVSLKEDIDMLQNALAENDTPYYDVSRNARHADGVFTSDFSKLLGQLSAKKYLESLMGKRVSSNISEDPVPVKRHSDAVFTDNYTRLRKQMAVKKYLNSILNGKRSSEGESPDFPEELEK

VIP peptides [2] = biological target: T2, VIP peptides (Cavia porcellus, UniProt P04566)
T2 sequence (P04566 whole entry): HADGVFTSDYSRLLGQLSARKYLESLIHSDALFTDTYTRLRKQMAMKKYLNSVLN

VIP peptides [3] = biological target: T3, VIP peptides (Rattus norvegicus, UniProt P01283)
T3 sequence (P01283 whole entry): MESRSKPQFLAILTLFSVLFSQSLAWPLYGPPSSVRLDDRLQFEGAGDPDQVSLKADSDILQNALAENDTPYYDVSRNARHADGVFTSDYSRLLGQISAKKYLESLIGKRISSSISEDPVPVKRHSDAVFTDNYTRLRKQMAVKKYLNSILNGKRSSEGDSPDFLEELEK

| Compound | Ki (VIP peptides [1]) | Ki (VIP peptides [2]) [nM] | Ki (VIP peptides [3]) |
| --- | --- | --- | --- |
| H-HSDAVFTDNYTRLRKQMAVKKYLNSIAN-NH2 [VIP Ala27] | 0.37 nM and 2.3 nM and 2.5 nM | 2.4 | 0.59 nM and 4.7 nM and 2 nM |
| CC[C@H](C)[C@H](NC(=O)[C@H](CO)NC(=O)[C@H](CC(N)=O)NC(=O)[C@H](CC(C)C)NC(=O)[C@H](Cc1ccc(O)cc1)NC(=O)[C@H](CCCCN)NC(=O)[C@H](CCCCN)NC(=O)[C@@H](NC(=O)[C@H](C)NC(=O)[C@H](CCSC)NC(=O)[C@H](CCC(N)=O)NC(=O)[C@H](CCCCN)NC(=O)[C@H](CCCN=C(N)N)NC(=O)[C@H](CC(C)C)NC(=O)[C@H](CCCN=C(N)N)NC(=O)[C@@H](NC(=O)[C@H](Cc1ccc(O)cc1)NC(=O)[C@H](CC(N)=O)NC(=O)[C@H](CC(=O)O)NC(=O)[C@@H](NC(=O)[C@@H](Cc1ccccc1)NC(=O)[C@@H](NC(=O)[C@H](C)NC(=O)[C@H](CC(=O)O)NC(=O)[C@H](CO)NC(=O)[C@@H](N)Cc1cnc[nH]1)C(C)C)[C@@H](C)O)[C@@H](C)O)C(C)C)C(=O)N[C@@H](CC(C)C)C(=O)N[C@@H](CC(N)=O)C(N)=O [VIP [D-Phe6]] | 288 nM and 198 nM and 115 nM | 400 | 269 nM and 692 nM and 912 nM |
| H-HSDAVFTDNYTRLRKQAAVKKYLNSILN-NH2 [VIP Ala17] | 0.74 nM and 4.5 nM and 3.9 nM | 4 | 1.6 nM and 5 nM and 3.6 nM |
| CC[C@H](C)[C@H](NC(=O)[C@H](CO)NC(=O)[C@H](CC(N)=O)NC(=O)[C@H](CC(C)C)NC(=O)[C@H](Cc1ccc(O)cc1)NC(=O)[C@H](CCCCN)NC(=O)[C@H](CCCCN)NC(=O)[C@H](NC(=O)[C@H](C)NC(=O)[C@H](CCSC)NC(=O)[C@H](CCC(N)=O)NC(=O)[C@H](CCCCN)NC(=O)[C@H](CCCN=C(N)N)NC(=O)[C@H](CC(C)C)NC(=O)[C@H](CCCN=C(N)N)NC(=O)[C@@H](NC(=O)[C@H](Cc1ccc(O)cc1)NC(=O)[C@H](CC(N)=O)NC(=O)[C@H](CC(=O)O)NC(=O)[C@@H](NC(=O)[C@H](Cc1ccccc1)NC(=O)[C@@H](NC(=O)[C@H](C)NC(=O)[C@H](CC(=O)O)NC(=O)[C@H](CO)NC(=O)[C@@H](N)Cc1cnc[nH]1)C(C)C)[C@@H](C)O)[C@@H](C)O)C(C)C)C(=O)N[C@@H](CC(C)C)C(=O)N[C@@H](CC(N)=O)C(N)=O [VIP [D-Val19]] | 10.9 nM and 69.2 nM and 58.9 nM | 34.6 | 6.3 nM and 29.5 nM and 25.1 nM |
| H-HSDAVFTDAYTRLRKQMAVKKYLNSILN-NH2 [VIP Ala9] | 0.29 nM and 1.8 nM and 1.4 nM | 1.6 | 0.16 nM and 1.3 nM and 0.49 nM |
| H-HSAAVFTDNYTRLRKQMAVKKYLNSILN-NH2 [VIP Ala3] | 74.1 nM and 182 nM and 123 nM | 427 | 43.7 nM and 245 nM and 148 nM |
| H-HSDAVFTDNYTALRKQMAVKKYLNSILN-NH2 [VIP Ala12] | 53.7 nM and 61.7 nM and 50.1 nM | 56.1 | 12.3 nM and 34.7 nM and 30 nM |
| H-HSDAVFTDNYTRLRKQMAVKKYANSILN-NH2 [VIP Ala23] | 26.9 nM and 170 nM and 155 nM | 182 | 33.9 nM and 213 nM and 204 nM |
| H-HSDAVFTDNYTRLAKQMAVKKYLNSILN-NH2 [VIP Ala14] | 24.6 nM and 174 nM and 111 nM | 61.6 | 30 nM and 45.7 nM and 51.3 nM |
| CC[C@H](C)[C@H](NC(=O)[C@H](CO)NC(=O)[C@H](CC(N)=O)NC(=O)[C@H](CC(C)C)NC(=O)[C@H](Cc1ccc(O)cc1)NC(=O)[C@H](CCCCN)NC(=O)[C@H](CCCCN)NC(=O)[C@@H](NC(=O)[C@H](C)NC(=O)[C@H](CCSC)NC(=O)[C@H](CCC(N)=O)NC(=O)[C@H](CCCCN)NC(=O)[C@H](CCCN=C(N)N)NC(=O)[C@H](CC(C)C)NC(=O)[C@H](CCCN=C(N)N)NC(=O)[C@@H](NC(=O)[C@H](Cc1ccc(O)cc1)NC(=O)[C@H](CC(N)=O)NC(=O)[C@H](CC(=O)O)NC(=O)[C@@H](NC(=O)[C@H](Cc1ccccc1)NC(=O)[C@@H](NC(=O)[C@H](C)NC(=O)[C@H](CC(=O)O)NC(=O)[C@@H](CO)NC(=O)[C@@H](N)Cc1cnc[nH]1)C(C)C)[C@@H](C)O)[C@@H](C)O)C(C)C)C(=O)N[C@@H](CC(C)C)C(=O)N[C@@H](CC(N)=O)C(N)=O [VIP [D-Ser2]] | 1.9 nM and 18.2 nM and 15.9 nM | 8.1 | 4.2 nM and 15.1 nM and 38.9 nM |
| H-HSDAVFTDNYTRARKQMAVKKYLNSILN-NH2 [VIP Ala13] | 6.6 nM and 7.2 nM and 3.4 nM | 9.5 | 1.9 nM and 9.3 nM and 10 nM |
| CC[C@H](C)[C@H](NC(=O)[C@H](CO)NC(=O)[C@H](CC(N)=O)NC(=O)[C@H](CC(C)C)NC(=O)[C@H](Cc1ccc(O)cc1)NC(=O)[C@H](CCCCN)NC(=O)[C@H](CCCCN)NC(=O)[C@@H](NC(=O)[C@H](C)NC(=O)[C@H](CCSC)NC(=O)[C@H](CCC(N)=O)NC(=O)[C@H](CCCCN)NC(=O)[C@H](CCCN=C(N)N)NC(=O)[C@H](CC(C)C)NC(=O)[C@H](CCCN=C(N)N)NC(=O)[C@@H](NC(=O)[C@H](Cc1ccc(O)cc1)NC(=O)[C@H](CC(N)=O)NC(=O)[C@H](CC(=O)O)NC(=O)[C@H](C)NC(=O)[C@H](Cc1ccccc1)NC(=O)[C@@H](NC(=O)[C@H](C)NC(=O)[C@H](CC(=O)O)NC(=O)[C@H](CO)NC(=O)[C@@H](N)Cc1cnc[nH]1)C(C)C)[C@@H](C)O)C(C)C)C(=O)N[C@@H](CC(C)C)C(=O)N[C@@H](CC(N)=O)C(N)=O [VIP Ala7] | 17.8 nM and 51.3 nM and 35.7 nM | 66.1 | 16.2 nM and 107 nM and 53.7 nM |
| CC[C@H](C)[C@H](NC(=O)[C@H](CO)NC(=O)[C@H](CC(N)=O)NC(=O)[C@H](CC(C)C)NC(=O)[C@H](Cc1ccc(O)cc1)NC(=O)[C@H](CCCCN)NC(=O)[C@H](CCCCN)NC(=O)[C@@H](NC(=O)[C@H](C)NC(=O)[C@H](CCSC)NC(=O)[C@H](CCC(N)=O)NC(=O)[C@H](CCCCN)NC(=O)[C@H](CCCN=C(N)N)NC(=O)[C@H](CC(C)C)NC(=O)[C@H](CCCN=C(N)N)NC(=O)[C@@H](NC(=O)[C@H](Cc1ccc(O)cc1)NC(=O)[C@H](CC(N)=O)NC(=O)[C@H](CC(=O)O)NC(=O)[C@@H](NC(=O)[C@H](Cc1ccccc1)NC(=O)[C@@H](NC(=O)[C@@H](C)NC(=O)[C@H](CC(=O)O)NC(=O)[C@H](CO)NC(=O)[C@@H](N)Cc1cnc[nH]1)C(C)C)[C@@H](C)O)[C@@H](C)O)C(C)C)C(=O)N[C@@H](CC(C)C)C(=O)N[C@@H](CC(N)=O)C(N)=O [VIP [D-Ala4]] |  | 16.2 | 1.1 nM and 7.2 nM and 10.5 nM |
| CC[C@H](C)[C@H](NC(=O)[C@H](CO)NC(=O)[C@H](CC(N)=O)NC(=O)[C@H](CC(C)C)NC(=O)[C@H](Cc1ccc(O)cc1)NC(=O)[C@H](CCCCN)NC(=O)[C@H](CCCCN)NC(=O)[C@@H](NC(=O)[C@H](C)NC(=O)[C@H](CCSC)NC(=O)[C@H](CCC(N)=O)NC(=O)[C@H](CCCCN)NC(=O)[C@H](CCCN=C(N)N)NC(=O)[C@H](CC(C)C)NC(=O)[C@@H](CCCN=C(N)N)NC(=O)[C@@H](NC(=O)[C@H](Cc1ccc(O)cc1)NC(=O)[C@H](CC(N)=O)NC(=O)[C@H](CC(=O)O)NC(=O)[C@@H](NC(=O)[C@H](Cc1ccccc1)NC(=O)[C@@H](NC(=O)[C@H](C)NC(=O)[C@H](CC(=O)O)NC(=O)[C@H](CO)NC(=O)[C@@H](N)Cc1cnc[nH]1)C(C)C)[C@@H](C)O)[C@@H](C)O)C(C)C)C(=O)N[C@@H](CC(C)C)C(=O)N[C@@H](CC(N)=O)C(N)=O [VIP [D-Arg12]] | 2.2 nM and 18.2 nM and 14.4 nM | 16.9 | 2.8 nM and 11.7 nM and 19.1 nM |
| CC[C@H](C)[C@H](NC(=O)[C@H](CO)NC(=O)[C@H](CC(N)=O)NC(=O)[C@H](CC(C)C)NC(=O)[C@H](Cc1ccc(O)cc1)NC(=O)[C@H](CCCCN)NC(=O)[C@H](CCCCN)NC(=O)[C@@H](NC(=O)[C@H](C)NC(=O)[C@H](CCSC)NC(=O)[C@H](CCC(N)=O)NC(=O)[C@H](CCCCN)NC(=O)[C@H](CCCN=C(N)N)NC(=O)[C@H](CC(C)C)NC(=O)[C@H](CCCN=C(N)N)NC(=O)[C@@H](NC(=O)[C@H](Cc1ccc(O)cc1)NC(=O)[C@H](CC(N)=O)NC(=O)[C@H](CC(=O)O)NC(=O)[C@@H](NC(=O)[C@H](Cc1ccccc1)NC(=O)[C@@H](NC(=O)[C@H](C)NC(=O)[C@H](CC(=O)O)NC(=O)[C@H](CO)NC(=O)[C@@H](N)Cc1cnc[nH]1)C(C)C)[C@@H](C)O)[C@@H](C)O)C(C)C)C(=O)N[C@@H](CC(C)C)C(=O)N[C@H](CC(N)=O)C(N)=O [VIP [D-Asn28]] |  | 14.8 | 1.5 nM and 6.3 nM and 11.8 nM |
| H-HSDAVFTDNYTRLRKQMAAKKYLNSILN-NH2 [VIP Ala19] | 0.59 nM and 4.1 nM and 2.1 nM | 3.2 | 0.85 nM and 2.8 nM and 2.2 nM |
| H-HSDAVFTDNYTRLRKQMAVAKYLNSILN-NH2 [VIP Ala20] |  | 5.5 | 1.7 nM and 3.5 nM and 3.3 nM |
| H-HSDAVFTDNYARLRKQMAVKKYLNSILN-NH2 [VIP Ala11] |  | 2.4 | 0.34 nM and 1.9 nM and 0.42 nM |
| H-HSDAVFTDNYTRLRKAMAVKKYLNSILN-NH2 [VIP Ala16] |  | 5.1 | 0.93 nM and 2.1 nM and 1.1 nM |
| CC[C@H](C)[C@H](NC(=O)[C@H](CO)NC(=O)[C@H](CC(N)=O)NC(=O)[C@H](CC(C)C)NC(=O)[C@H](Cc1ccc(O)cc1)NC(=O)[C@H](CCCCN)NC(=O)[C@H](CCCCN)NC(=O)[C@@H](NC(=O)[C@H](C)NC(=O)[C@H](CCSC)NC(=O)[C@H](CCC(N)=O)NC(=O)[C@H](CCCCN)NC(=O)[C@H](CCCN=C(N)N)NC(=O)[C@H](CC(C)C)NC(=O)[C@H](CCCN=C(N)N)NC(=O)[C@@H](NC(=O)[C@H](Cc1ccc(O)cc1)NC(=O)[C@H](CC(N)=O)NC(=O)[C@H](CC(=O)O)NC(=O)[C@@H](NC(=O)[C@H](Cc1ccccc1)NC(=O)[C@@H](NC(=O)[C@H](C)NC(=O)[C@@H](CC(=O)O)NC(=O)[C@H](CO)NC(=O)[C@@H](N)Cc1cnc[nH]1)C(C)C)[C@@H](C)O)[C@@H](C)O)C(C)C)C(=O)N[C@@H](CC(C)C)C(=O)N[C@@H](CC(N)=O)C(N)=O [VIP [D-Asp3]] |  | 9.1 | 0.93 nM and 5.4 nM and 6.5 nM |
